Patent publication US5827872A, “Xenomins novel heterocyclic compounds with antimicrobial and antneoplastic properties” (priority 1996, dated 1998)
≈ marks a conversion by molar mass, not a printed value.

Columns and labels:
Assay type in all cases: cell-based
human colon cancer HT-29 = experiment: Antineoplastic activity in vitro, method of Skehan et al. (1990), HT-29; conditions: HT29 cells
Procedure: (§1) The antineoplastic activities of xenomins have been determined in vitro in cell cultures of human colon cancer HT-29, breast cancer MCF-7 and cervical cancer Hela. The tests were carried out using the method described by Skehan et al. (1990).

[1] = test system: Candida tropicalis CBS 94; experiment: MIC by standard dilution method (NCCLS 1990), Candida tropicalis CBS 94; conditions: CBS94, 35° C., 24 h incubation
Procedure: (§2) To determine minimum inhibitory concentration (MIC) of the xenomins, the standard dilution method was used as outlined by The National Committee for Clinical Laboratory Standards (1990) for testing antibiotics. The tests were coducted at 35° C. and the MICs were determined after 24 h incubation.

[2] = test system: Staphylococcus aureus ATCC 29213; experiment: MIC by standard dilution method (NCCLS 1990), Staphylococcus aureus ATCC 29213; conditions: ATCC29213, 35° C., 24 h incubation
Procedure: as §2

breast cancer MCF-7 = experiment: Antineoplastic activity in vitro, method of Skehan et al. (1990), MCF-7; conditions: Homo sapiens, MCF7, MCF-7 cells
Procedure: as §1

Bacillus subtilis = experiment: MIC by standard dilution method (NCCLS 1990), Bacillus subtilis; conditions: 35° C., 24 h incubation
Procedure: as §2

cervical cancer Hela = experiment: Antineoplastic activity in vitro, method of Skehan et al. (1990), Hela; conditions: Homo sapiens, Hela cells
Procedure: as §1

[3] = test system: Cryptococcus neoformans ATCC14117; experiment: MIC by standard dilution method (NCCLS 1990), Cryptococcus neoformans ATCC14117; conditions: 35° C., 24 h incubation
Procedure: as §2

S. aureus 0012 = experiment: MIC by standard dilution method (NCCLS 1990), S. aureus 0012 (methicillin-resistant clinical isolate); conditions: Staphylococcus aureus; S. aureus 0012, clinical isolate of methicillin-resistant strain; 35° C., 24 h incubation
Procedure: as §2
(§3) *clinical isolates of methicillinresistant strain.

S. aureus 0017 = experiment: MIC by standard dilution method (NCCLS 1990), S. aureus 0017 (methicillin-resistant clinical isolate); conditions: Staphylococcus aureus; S. aureus 0017, clinical isolate of methicillin-resistant strain; 35° C., 24 h incubation
Procedure: as §2, §3

| IC50 (human colon cancer HT-29) [mg/L] | MIC [1] [mg/L] | MIC [2] [mg/L] | IC50 (breast cancer MCF-7) [mg/L] | MIC (Bacillus subtilis) [mg/L] | IC50 (cervical cancer Hela) [mg/L] | MIC [3] [mg/L] | MIC (S. aureus 0012) [mg/L] | MIC (S. aureus 0017) [mg/L] | SMILES |
| --- | --- | --- | --- | --- | --- | --- | --- | --- | --- |
| 0.14 (≈ 0.466 µM) | 100 (≈ 333 µM) | 20 (≈ 66.6 µM) | 1.37 (≈ 4.56 µM) | 5 (≈ 16.6 µM) | 0.24 (≈ 0.799 µM) | 13 (≈ 43.3 µM) | 10 (≈ 33.3 µM) | 10 (≈ 33.3 µM) | CCCCCC(=O)Nc1c2[s+]([O-])scc-2n(C)c1=O (single isomer, unassigned) [Xenomin 1] |
| 0.34 (≈ 1.08 µM) | > 100 | 41 (≈ 130 µM) | 1.74 (≈ 5.53 µM) | 41 (≈ 130 µM) | 0.65 (≈ 2.07 µM) | 25 (≈ 79.5 µM) | 41 (≈ 130 µM) | 41 (≈ 130 µM) | CC(C)CCCC(=O)Nc1c2[s+]([O-])scc-2n(C)c1=O (single isomer, unassigned) [Xenomin 2] |
